Experimental data reported in patent US20040072801A1, “Sterols bearing pendant allosteric effectors of hemoglobin, and uses thereof” (priority 2002, published 2004).
“And” between values parts separate entries of the source, which are not always exact repeats. Equal values may be shown once. Read-outs that look alike come from different tables or passages of the source.

How the values were obtained:
stripped hemoglobin = stripped hemoglobin (Homo sapiens, UniProt P68871); details: pH 7.4, cited from earlier work
[1] = tested on: human RBCs in whole blood; experiment: P50 of RBCs after in vitro incubation of human whole blood with effector (Hemox Analyzer); details: for P50 Increase % / P50 mm HG EFF:WB: human WB, EFF:WB 1:1.5, 30 mM; for lysis of the RBC: physiological or nearly physiological osmotic pressure, in vitro whole blood
human RBCs = details: large-volume continuous-flow electroporation; cited from earlier work
[2] = tested on: mouse RBCs in whole blood; experiment: P50 of RBCs after in vitro incubation of mouse whole blood with effector (Hemox Analyzer); type: cell-based; details: for P50 Increase %: mouse WB
C57B1/6 mice [3] = experiment: Tolerability and pharmacodynamics of SV184 and SV192 after iv injection; type: in vivo, mouse
Method: The tolerability and pharmacodynamics of the compounds SV184 and SV192 were tested in a small number of C57B1/6 mice. Mice receiving the whole volume of 200 μL of (30 mM) effector solution died immediately after injection or during injection (injection time 10-20 min). Eight mice receiving less than 200 μL of the compound solution survived. These mice were fast breathing and shaking, but recovered after 4 hours. […] Therefore, new derivatives were synthesized in our labs.

C57B1/6 mice [4] = experiment: as above; type: in vivo, mouse; remark: listed apart in the source
[5] = molecular target: T1, C57B1/6 mice free hemoglobin (Mus musculus, UniProt P02088); experiment: P50 of mouse free hemoglobin after incubation with KF effectors; type: biochemical; details: effector 2.5 mM : mouse hemoglobin 2.5 mM, 1:1; pH 7.0
T1 construct: P50 values of C57B1/6 mice free hemoglobin after incubation with; from tissue; host or cells: blood of C57Bl/6 mice (inferred; the preparation is not described)
Method: The pH of the compound solutions was adjusted to approximately 7.1 and effector solution (2.5 mM) and mouse hemoglobin (2.5 mM) were mixed at 1:1 ratio. The osmolarity was adjusted to 218-310 mOsM. Effectors and whole blood (WB) at 1:1.5 were incubated at 37° C. for 60 minutes.
They were tested for P50 right shift with mouse hemoglobin. The pH was adjusted to approximately 7.0 and effector solution (2.5 mM) and mouse hemoglobin (2.5 mM) were mixed at 1:1 ratio. P50 values were measured as before.

mice RBC = type: in vivo; details: ip 30, 45 and 60 mM; three hours after injection
Method: Three hours after injection, samples of blood were taken for P50 measurements. […] We have observed the shift of the P50 values in the blood from the injected animals over 3 days.
The P50 shift of RBC is similar to iv injections at concentrations of 30 and 45 mM.

C57B1/6 mice [6] = tested on: C57B1/6 mice
[7] = EFF:WB 1:0.375, 224 mOsM, 30 mM
[8] = EFF:WB 1:0.375, 220 mOsM, 30 mM

Sequence of stripped hemoglobin (P69905 2-142 partner limits assumed): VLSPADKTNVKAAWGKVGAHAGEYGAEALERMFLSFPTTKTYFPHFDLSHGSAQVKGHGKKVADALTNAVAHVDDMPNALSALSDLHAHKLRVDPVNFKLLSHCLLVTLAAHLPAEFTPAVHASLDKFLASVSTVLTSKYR
Sequence of stripped hemoglobin (P68871 2-147 limits assumed): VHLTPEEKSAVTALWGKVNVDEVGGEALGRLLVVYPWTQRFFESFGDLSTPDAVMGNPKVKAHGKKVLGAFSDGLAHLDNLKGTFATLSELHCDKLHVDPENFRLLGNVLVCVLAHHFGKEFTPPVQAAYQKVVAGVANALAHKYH
T1 sequence (P01942 2-142 partner limits assumed): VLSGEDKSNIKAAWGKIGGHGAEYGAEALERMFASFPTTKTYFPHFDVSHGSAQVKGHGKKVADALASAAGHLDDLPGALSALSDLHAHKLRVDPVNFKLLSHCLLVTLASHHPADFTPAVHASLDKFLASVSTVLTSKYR
T1 sequence (P02088 2-147 limits assumed): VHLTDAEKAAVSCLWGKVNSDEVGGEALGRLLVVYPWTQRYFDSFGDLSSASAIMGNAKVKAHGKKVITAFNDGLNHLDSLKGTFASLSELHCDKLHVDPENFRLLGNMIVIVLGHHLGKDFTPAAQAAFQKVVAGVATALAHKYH

O=C(O)C(COP(=O)(O)O)OP(=O)(O)O (centres unmarked) [2,3-Diphosphoglycerate]
O2 half-saturation pressure P(O2)(½) of stripped hemoglobin (stripped hemoglobin; 25 C, without effector 4.3): 12.0 mm Hg
O2 half-saturation pressure P(O2)(½) of stripped hemoglobin (stripped hemoglobin; 37 C, without effector 9.3): 23.7 mm Hg

CC(C)CCCC(C)C1CCC2C3CC=C4CC(OC(=O)OP(=O)(O)OC5C(OP(=O)(O)O)C(OP(=O)(O)O)C(OP(=O)(O)O)C(OP(=O)(O)O)C5OP(=O)(O)O)CCC4(C)C3CCC12C.CCCCN(CCCC)CCCC.CCCCN(CCCC)CCCC.CCCCN(CCCC)CCCC.CCCCN(CCCC)CCCC.CCCCN(CCCC)CCCC.CCCCN(CCCC)CCCC (centres unmarked) [Effector 2a, Inositol hexaphosphate-cholesteroloxycarbonyl, hexa tributyl-ammonium salt]
lysis of red blood cells (hemolysis) ([1]; tested on whole blood): triggered the lysis of the red blood cells

O=P(O)(O)O[C@H]1[C@H](OP(=O)(O)O)[C@@H](OP(=O)(O)O)[C@H](OP(=O)(O)O)[C@@H](OP(=O)(O)O)[C@H]1OP(=O)(O)O [IHP, inositol hexaphosphate]
O2 half-saturation pressure P(O2)(½) of stripped hemoglobin (stripped hemoglobin; 25 C, without effector 4.3): 48.4 mm Hg
O2 half-saturation pressure P(O2)(½) of stripped hemoglobin (stripped hemoglobin; 37 C, without effector 9.3): 96.4 mm Hg
P50 of human RBCs with encapsulated IHP (human RBCs): approximately 50 torr

CC(C)CCCC(C)C1CCC2C3CC=C4CC(OC(=O)OP(=O)([O-])OC5C(OP(=O)([O-])[O-])C(OP(=O)([O-])[O-])C(OP(=O)([O-])[O-])C(OP(=O)([O-])[O-])C5OP(=O)([O-])[O-])CCC4(C)C3CCC12C.[Na+].[Na+].[Na+].[Na+].[Na+].[Na+].[Na+].[Na+].[Na+].[Na+].[Na+] (centres unmarked) [SV184, Inositol hexaphosphate-cholesteroloxycarbonyl, undecanyl sod ium salt]
P50 mm HG EFF:WB [2, 7]: 44.3 mm Hg
P50 mm HG EFF:WB ([2]; EFF:WB 1:1.5, 310 mOsM, 30 mM): 41.8 mm Hg
P50 Increase % [2, 7]: 15%
P50 Increase % ([2]; EFF:WB 1:1.5, 310 mOsM, 30 mM): 9%
P50 (FIG. 2, Curve B) (C57B1/6 mice [3]; IV, WB mouse, 1 h, saline control P50=33.3): 41.0
% increase of P50 (FIG. 2) (C57B1/6 mice [3]; IV, WB mouse, 1 h, versus saline control): 23.12%
toxicity upon iv injection in mice (C57B1/6 mice [3]; iv, 30 mM effector solution): high level of toxicity
shift of P50 in blood of surviving mice (C57B1/6 mice [3]; less than 200 μL iv, blood taken 4 and 24 hours after injection): did not show a significant shift of P50
Shift of P50 % (C57B1/6 mice [4]; iv 150 μL of 30 nM): <5%
Number of mice died (C57B1/6 mice [4]; iv 150 μL of 30 mM, 4 mice injected): 0
Number of mice died (C57B1/6 mice [4]; iv 200 μL of 30 mM, 1 mouse injected): 1
P50 Increase % ([1]; 232 mOsM): 16%
P50 mm HG EFF:WB ([1]; 232 mOsM): 30.4 mm Hg
P50 mm HG EFF:WB ([1]; 310 mOsM): 30 mm Hg

CC(C)CCCC(C)C1CCC2C3CC=C4CC(OC(=O)OP(=O)(O)OC5C(OP(=O)(O)O)C(OP(=O)(O)O)C(OP(=O)(O)O)C(OP(=O)(O)O)C5OP(=O)(O)O)CCC4(C)C3CCC12C.CN(C)C1CCCCC1.CN(C)C1CCCCC1.CN(C)C1CCCCC1.CN(C)C1CCCCC1.CN(C)C1CCCCC1.CN(C)C1CCCCC1.CN(C)C1CCCCC1.CN(C)C1CCCCC1 (centres unmarked) [SV192bis]
P50 Increase % ([1]; 220 mOsM): 6%
P50 mm HG EFF:WB ([1]; 220 mOsM): 26.6 mm Hg
P50 Increase % ([1]; 272 mOsM): 6%
P50 mm HG EFF:WB ([1]; 272 mOsM): 24 mm Hg
P50 Increase % ([1]; 306 mOsM): 13%
P50 mm HG EFF:WB ([1]; 306 mOsM): 28.3 mm Hg
lysis of the RBC [1]: no lysis

CC(C)CCCC(C)C1CCC2C3CC=C4CC(OC(=O)OP(=O)(O)OC5C(OP(=O)(O)O)C(OP(=O)(O)O)C(OP(=O)(O)O)C(OP(=O)(O)O)C5OP(=O)(O)O)CCC4(C)C3CCC12C.CN(C)C1CCCCC1.CN(C)C1CCCCC1.CN(C)C1CCCCC1.CN(C)C1CCCCC1.CN(C)C1CCCCC1.CN(C)C1CCCCC1.CN(C)C1CCCCC1.CN(C)C1CCCCC1 (centres unmarked) [SV192ter]
P50 mm HG EFF:WB [2, 8]: 46.4 mm Hg
P50 mm HG EFF:WB ([2]; EFF:WB 1:1.5, 264 mOsM, 15 mM): 42.2 mm Hg
P50 mm HG EFF:WB ([2]; EFF:WB 1:1.5, 276 mOsM, 30 mM): 43.5 mm Hg
P50 mm HG EFF:WB ([2]; EFF:WB 1:1.5, 283 mOsM, 5 mM): 43.1 mm Hg
P50 mm HG EFF:WB ([2]; EFF:WB 1:1.5, 314 mOsM, 60 mM): 43.1 mm Hg
P50 mm HG EFF:WB ([2]; EFF:WB 1:1.5, 320 mOsM, 30 mM): 41.4 mm Hg and 43.4 mm Hg and 41.9 mm Hg
P50 mm HG EFF:WB ([2]; EFF:WB 1:1.5, 320 mOsM, 50 mM): 42.6 mm Hg
P50 Increase % [2, 8]: 8%
P50 Increase % ([2]; EFF:WB 1:1.5, 264 mOsM, 15 mM): 2%
P50 Increase % ([2]; EFF:WB 1:1.5, 276 mOsM, 30 mM): 5%
P50 Increase % ([2]; EFF:WB 1:1.5, 283 mOsM, 5 mM): 7%
P50 Increase % ([2]; EFF:WB 1:1.5, 314 mOsM, 60 mM): 4%
P50 Increase % ([2]; EFF:WB 1:1.5, 320 mOsM, 30 mM): 8% and 13% and 9%
P50 Increase % ([2]; EFF:WB 1:1.5, 320 mOsM, 50 mM): 5%
P50 Increase % ([1]; 202 mOsM): 5%
P50 mm HG EFF:WB ([1]; 202 mOsM): 26.3 mm Hg
P50 Increase % ([1]; 258 mOsM): 2%
P50 mm HG EFF:WB ([1]; 258 mOsM): 25.6 mm Hg
P50 Increase % ([1]; 274 mOsM): 3%
P50 mm HG EFF:WB ([1]; 274 mOsM): 26.8 mm Hg
P50 Increase % ([1]; 303 mOsM): 4%
P50 mm HG EFF:WB ([1]; 303 mOsM): 26.2 mm Hg
lysis of the RBC [1]: no lysis

Inositol hexaphosphate-cholesteroloxycarbonyl, hepta N,N-dimethyl-cyclohexylammonium salt [KF16]
P50 mm Hg EFF:WB ([2]; 1:1.5, 283 mOsM, pH 7.1, 30 mM, 60 min 37° C.): 36.14 mm Hg
P50 Increase % [5]: 90%
P50 mm Hg EFF/fHb [5]: 52.17 mm Hg
right shift of P50 after ip injection (mice RBC): strong right shift of P50
P50 Increase % (C57B1/6 mice [6]; iv 200 μL of 60 mM, 2 h after injection): > 10%
right shift in P50 value at lower concentrations (C57B1/6 mice [6]; iv, concentrations lower than 60 mM): 6-9%
